Measured values: patent US20130344026A1, “Dimeric Smac Mimetics” (priority 2009, published 2013)

test system: HCC461; test: cell viability assay in HCC461, compound alone; type: cell-based; conditions: HCC461, HCC461; Tables 15-18; read-out: IC50 (uM) in cell viability assay in HCC461

Row | Structure (SMILES) | IC50 [µM]
1 | CN[C@@H](C)C(=O)N[C@H](C(=O)N1CCC[C@H]1Cn1nnnc1SC(C)(C)C)[C@@H](C)OCC#CC#CCO[C@H](C)[C@H](NC(=O)[C@H](C)NC)C(=O)N1CCC[C@H]1Cn1nnnc1SC(C)(C)C [Compound P2-21] | 0.24
2 | CN[C@@H](C)C(=O)N[C@H](C(=O)N1CCC[C@H]1Cn1nnnc1S(=O)(=O)c1ccc(C)cc1)[C@@H](C)OCC#CC#CCO[C@H](C)[C@H](NC(=O)[C@H](C)NC)C(=O)N1CCC[C@H]1Cn1nnnc1S(=O)(=O)c1ccc(C)cc1 [Compound P2-22] | 0.18
3 | CN[C@@H](C)C(=O)N[C@@H](CCCCCC[C@H](NC(=O)[C@H](C)NC)C(=O)N1CCC[C@H]1C(=O)NC1CCCC2CCCCC21)C(=O)N1CCC[C@H]1C(=O)NC1CCCC2CCCCC21 (stereo partly drawn) [Compound P2-23] | 0.055
4 | CN[C@@H](C)C(=O)N[C@@H](CCNC(=O)c1cccc(C(=O)NCC[C@H](NC(=O)[C@H](C)NC)C(=O)N2CCC[C@H]2C(=O)N[C@@H]2CCCc3ccccc32)c1)C(=O)N1CCC[C@H]1C(=O)N[C@@H]1CCCc2ccccc21 [Compound P2-26] | 0.08
5 | CN[C@@H](C)C(=O)N[C@@H](CCNC(=O)c1cc(N)cc(C(=O)NCC[C@H](NC(=O)[C@H](C)NC)C(=O)N2CCC[C@H]2C(=O)N[C@@H]2CCCc3ccccc32)c1)C(=O)N1CCC[C@H]1C(=O)N[C@@H]1CCCc2ccccc21 [Compound P2-27] | 0.165
6 | CN[C@@H](C)C(=O)N[C@@H](CCNC(=O)c1cc(C(=O)NCC[C@H](NC(=O)[C@H](C)NC)C(=O)N2CCC[C@H]2C(=O)N[C@@H]2CCCc3ccccc32)[nH]n1)C(=O)N1CCC[C@H]1C(=O)N[C@@H]1CCCc2ccccc21 [Compound P2-28] | 0.163
7 | CN[C@@H](C)C(=O)N[C@@H](CCCCNC(=O)c1cccc(C(=O)NCCCC[C@H](NC(=O)[C@H](C)NC)C(=O)N2CCC[C@H]2C(=O)NC(c2ccccc2)c2ccccc2)c1)C(=O)N1CCC[C@H]1C(=O)NC(c1ccccc1)c1ccccc1 [Compound P2-29] | 0.324
8 | CN[C@@H](C)C(=O)N[C@@H](CCCCNC(=O)c1ccc(C(=O)NCCCC[C@H](NC(=O)[C@H](C)NC)C(=O)N2CCC[C@H]2C(=O)NC(c2ccccc2)c2ccccc2)cc1)C(=O)N1CCC[C@H]1C(=O)NC(c1ccccc1)c1ccccc1 [Compound P2-30] | 0.189
9 | CN[C@@H](C)C(=O)N[C@@H](CCCCNC(=O)c1cc(C(=O)NCCCC[C@H](NC(=O)[C@H](C)NC)C(=O)N2CCC[C@H]2C(=O)NC(c2ccccc2)c2ccccc2)[nH]n1)C(=O)N1CCC[C@H]1C(=O)NC(c1ccccc1)c1ccccc1 [Compound P2-31] | 0.268

The remaining lines, values ahead:

Row | IC50 [µM] | Structure (SMILES)
10 | 0.121 | CN[C@@H](C)C(=O)N[C@@H](CCCCNC(=O)c1cc(N)cc(C(=O)NCCCC[C@H](NC(=O)[C@H](C)NC)C(=O)N2CCC[C@H]2C(=O)N[C@@H]2CCCc3ccccc32)c1)C(=O)N1CCC[C@H]1C(=O)N[C@@H]1CCCc2ccccc21 [Compound P2-24]
11 | 0.086 | CN[C@@H](C)C(=O)N[C@@H](CCCCNC(=O)c1cc(O)cc(C(=O)NCCCC[C@H](NC(=O)[C@H](C)NC)C(=O)N2CCC[C@H]2C(=O)N[C@@H]2CCCc3ccccc32)c1)C(=O)N1CCC[C@H]1C(=O)N[C@@H]1CCCc2ccccc21 [Compound P2-25]
12 | 0.038 | CN[C@@H](C)C(=O)N[C@@H](CCCCNc1nc(NCCCC[C@H](NC(=O)[C@H](C)NC)C(=O)N2CCC[C@H]2C(=O)N[C@@H]2CCCc3ccccc32)nc(OC)n1)C(=O)N1CCC[C@H]1C(=O)N[C@@H]1CCCc2ccccc21 [Compound P2-32]
13 | 0.188 | CN[C@@H](C)C(=O)N[C@@H](CC#CC#CC[C@H](NC(=O)[C@H](C)NC)C(=O)N1CSC[C@H]1C(=O)N[C@@H]1CCCc2ccccc21)C(=O)N1CSC[C@H]1C(=O)N[C@@H]1CCCc2ccccc21 [Compound P2-33]

same assay, conditions: HCC461, HCC461 cells, compound alone; read-out: IC50 (uM) in cell viability assay in HCC461

Row | Structure (SMILES) | IC50 [µM]
14 | CN[C@@H](C)C(=O)N[C@H](C(=O)N1C[C@@H](n2cc(CNC(=O)NCc3cn([C@H]4C[C@@H](C(=O)N[C@@H]5CCCc6ccccc65)N(C(=O)[C@@H](NC(=O)[C@H](C)NC)C(C)(C)C)C4)nn3)nn2)C[C@H]1C(=O)N[C@@H]1CCCc2ccccc21)C(C)(C)C [Compound P3-5] | 0.061
15 | CN[C@@H](C)C(=O)N[C@H](C(=O)N1C[C@@H](N2CC(CCCC3CN([C@H]4C[C@@H](C(=O)NC5c6ccccc6-c6ccccc65)N(C(=O)[C@@H](NC(=O)[C@H](C)NC)C(C)(C)C)C4)N=N3)N=N2)C[C@H]1C(=O)NC1c2ccccc2-c2ccccc21)C(C)(C)C (stereo partly drawn) [Compound P3-6] | 0.007
16 | CN[C@@H](C)C(=O)N[C@H](C(=O)N1C[C@@H](n2cc(CNC(=O)c3cccc(C(=O)NCc4cn([C@H]5C[C@@H](C(=O)N[C@@H]6CCCc7ccccc76)N(C(=O)[C@@H](NC(=O)[C@H](C)NC)C(C)(C)C)C5)nn4)c3)nn2)C[C@H]1C(=O)N[C@@H]1CCCc2ccccc21)C(C)(C)C [Compound P3-7] | 0.007
17 | CN[C@@H](C)C(=O)N[C@H]1CC#CC#CC[C@H](NC(=O)[C@H](C)NC)C(C)N2C[C@H](C[C@H]2C(=O)N[C@@H]2CCCc3ccccc32)NC(=O)c2ccc(cc2)C(=O)N[C@H]2C[C@@H](C(=O)N[C@@H]3CCCc4ccccc43)N(C2)C1C (stereo partly drawn) [Compound P3-8] | 0.081
18 | CN[C@@H](C)C(=O)N[C@H](C(=O)N1C[C@@H](NC(=O)c2cccc(C(=O)N[C@H]3C[C@@H](C(=O)N[C@@H]4CCCc5ccccc54)N(C(=O)[C@@H](NC(=O)[C@H](C)NC)C(C)(C)C)C3)n2)C[C@H]1C(=O)N[C@@H]1CCCc2ccccc21)C(C)(C)C [Compound P3-10] | 0.046
19 | CN[C@@H](C)C(=O)N[C@H](C(=O)N1C[C@@H](NC(=O)c2cc(C(=O)N[C@H]3C[C@@H](C(=O)NC4CCCc5ccccc54)N(C(=O)[C@@H](NC(=O)[C@H](C)NC)C(C)(C)C)C3)cc([N+](=O)[O-])c2)CC1C(=O)N[C@@H]1CCCc2ccccc21)C(C)(C)C (stereo partly drawn) [Compound P3-16] | 0.007

The next lines start with the values.

Row | IC50 [µM] | Structure (SMILES)
20 | 0.022 | CN[C@@H](C)C(=O)N[C@H](C(=O)N1C[C@@H](NC(=O)CCC(=O)N[C@H]2C[C@@H](C(=O)NC3CCCc4ccccc43)N(C(=O)[C@@H](NC(=O)[C@H](C)NC)C(C)(C)C)C2)C[C@H]1C(=O)NC1CCCc2ccccc21)C(C)(C)C (stereo partly drawn) [Compound P3-1]
21 | 0.02 | CN[C@@H](C)C(=O)N[C@H](C(=O)N1C[C@@H](NC(=O)c2ccc(C(=O)N[C@H]3C[C@@H](C(=O)NC4c5ccccc5-c5ccccc54)N(C(=O)[C@@H](NC(=O)[C@H](C)NC)C(C)(C)C)C3)cc2)C[C@H]1C(=O)NC1c2ccccc2-c2ccccc21)C(C)(C)C [Compound P3-2]
22 | 0.07 | CN[C@@H](C)C(=O)N[C@H](C(=O)N1C[C@@H](NC(=O)CCCC(=O)N[C@H]2C[C@@H](C(=O)NC3c4ccccc4-c4ccccc43)N(C(=O)[C@@H](NC(=O)[C@H](C)NC)C(C)(C)C)C2)C[C@H]1C(=O)NC1c2ccccc2-c2ccccc21)C(C)(C)C [Compound P3-3]
23 | 0.006 | C#CC[C@H](NC(=O)[C@H](C)NC)C(=O)N1C[C@@H](NC(=O)c2ccc(C(=O)N[C@H]3C[C@@H](C(=O)N[C@@H]4CCCc5ccccc54)N(C(=O)[C@H](CC#C)NC(=O)[C@H](C)NC)C3)cc2)C[C@H]1C(=O)N[C@@H]1CCCc2ccccc21 [Compound P3-4]
24 | 0.086 | C#CC[C@H](NC(=O)[C@H](C)NC)C(=O)N1C[C@@H](NC(=O)N[C@H]2C[C@@H](C(=O)N[C@@H]3CCCc4ccccc43)N(C(=O)[C@H](CC#C)NC(=O)[C@H](C)NC)C2)CC1C(=O)N[C@@H]1CCCc2ccccc21 (stereo partly drawn) [Compound P3-9]
25 | 0.003 | CN[C@@H](C)C(=O)N[C@H](C(=O)N1C[C@@H](NC(=O)c2cncc(C(=O)N[C@H]3C[C@@H](C(=O)N[C@@H]4CCCc5ccccc54)N(C(=O)[C@@H](NC(=O)[C@H](C)NC)C(C)(C)C)C3)c2)C[C@H]1C(=O)N[C@@H]1CCCc2ccccc21)C(C)(C)C [Compound P3-11]
26 | 0.047 | C#CC[C@H](NC(=O)[C@H](C)NC)C(=O)N1C[C@@H](NC(=O)c2cccc(C(=O)N[C@H]3C[C@@H](C(=O)N[C@@H]4CCCc5ccccc54)N(C(=O)[C@H](CC#C)NC(=O)[C@H](C)NC)C3)c2)C[C@H]1C(=O)N[C@@H]1CCCc2ccccc21 [Compound P3-12]
27 | 0.028 | CN[C@@H](C)C(=O)N[C@H](C(=O)N1C[C@@H](NC(=O)c2cnc(C(=O)N[C@H]3C[C@@H](C(=O)N[C@@H]4CCCc5ccccc54)N(C(=O)[C@@H](NC(=O)[C@H](C)NC)C(C)(C)C)C3)cn2)C[C@H]1C(=O)N[C@@H]1CCCc2ccccc21)C(C)(C)C [Compound P3-13]
28 | 0.023 | C#CC[C@H](NC(=O)[C@H](C)NC)C(=O)N1C[C@@H](NC(=O)c2cnc(C(=O)N[C@H]3C[C@@H](C(=O)N[C@@H]4CCCc5ccccc54)N(C(=O)[C@H](CC#C)NC(=O)[C@H](C)NC)C3)cn2)C[C@H]1C(=O)N[C@@H]1CCCc2ccccc21 [Compound P3-14]
29 | 0.017 | CN[C@@H](C)C(=O)N[C@H](C(=O)N1C[C@@H](NC(=O)[C@H](O)[C@@H](O)C(=O)N[C@H]2C[C@@H](C(=O)NC3c4ccccc4-c4ccccc43)N(C(=O)[C@@H](NC(=O)[C@H](C)NC)C(C)(C)C)C2)C[C@H]1C(=O)NC1c2ccccc2-c2ccccc21)C(C)(C)C [Compound P3-15]
30 | 0.008 | CN[C@@H](C)C(=O)N[C@H](C(=O)N1C[C@@H](NC(=O)Cc2ccc(CC(=O)N[C@H]3C[C@@H](C(=O)N[C@@H]4CCCc5ccccc54)N(C(=O)[C@@H](NC(=O)[C@H](C)NC)C(C)(C)C)C3)cc2)C[C@H]1C(=O)N[C@@H]1CCCc2ccccc21)C(C)(C)C [Compound P3-18]
31 | 0.002 | CN[C@@H](C)C(=O)N[C@H](C(=O)N1C[C@@H](NC(=O)Cc2cccc(CC(=O)N[C@H]3C[C@@H](C(=O)N[C@@H]4CCCc5ccccc54)N(C(=O)[C@@H](NC(=O)[C@H](C)NC)C(C)(C)C)C3)c2)C[C@H]1C(=O)N[C@@H]1CCCc2ccccc21)C(C)(C)C [Compound P3-19]
32 | 0.008 | CN[C@@H](C)C(=O)N[C@H](C(=O)N1C[C@@H](NC(=O)c2ccccc2C(=O)N[C@H]2C[C@@H](C(=O)N[C@@H]3CCCc4ccccc43)N(C(=O)[C@@H](NC(=O)[C@H](C)NC)C(C)(C)C)C2)C[C@H]1C(=O)N[C@@H]1CCCc2ccccc21)C(C)(C)C [Compound P3-20]

same assay, conditions: HCC461 cells, compound alone; read-out: IC50 (uM) in cell viability assay in HCC461

Row | Structure (SMILES) | IC50 [µM]
33 | CN[C@@H](C)C(=O)N[C@H](C(=O)N1C[C@@H](NC(=O)C2CCCC(C(=O)N[C@H]3C[C@@H](C(=O)NC4CCCc5ccccc54)N(C(=O)[C@@H](NC(=O)[C@H](C)NC)C(C)(C)C)C3)C2)CC1C(=O)N[C@@H]1CCCc2ccccc21)C(C)(C)C (stereo partly drawn) [Compound P3-17] | 0.002
